From patent US20250041277A1, “METHODS AND DOSING REGIMENS COMPRISING A CDK2 INHIBITOR AND A CDK4 INHIBITOR FOR TREATING CANCER” (PFIZER INC., priority 2021, published 2025)

Tests used:
Type in all cases: cell-based
[1] = system: H1792; assay: Combinatorial activity in LUAD cell line H1792; conditions: Homo sapiens, NCI-H1792; H1792, KRAS G12C; single agent; read-out: (nM) s.a.
Protocol: (§1) Combinatorial activity of PF-07104091 and PF-07220060 was assessed in LUADs as single agents (s.a.) or in combination.

[2] = system: HCC44 (RB-); assay: Combinatorial activity in LUAD cell line HCC44; conditions: Homo sapiens, KRAS G12C, single agent, read-out: (nM) s.a.
Protocol: as §1

[3] = system: SW1573; assay: Combinatorial activity in LUAD cell line SW1573; conditions: Homo sapiens; SW1573, KRAS G12C; single agent; read-out: (nM) s.a.
Protocol: as §1

IC50 [1]: 210 nM
IC50 [2]: > 1000 nM
IC50 [3]: > 1000 nM
SMILES: CC(C)n1c(C(C)(C)O)nc2c(F)cc(-c3nc(N[C@@H]4CCOC[C@H]4O)ncc3Cl)cc21 [PF-07220060, 1,5-anhydro-3-({5-chloro-4-[4-fluoro-2-(2-hydroxypropan-2-yl)-1-(propan-2-yl)-1H-benzimidazol-6-yl]pyrimidin-2-yl}amino)-2,3-dideoxy-D-threo-pentitol]
